According to patent publication US9992989B2, “Dual action lethal containers, systems, methods and compositions for killing adult mosquitos and larvae” (University of Florida Research Foundation, Inc., priority 2012, dated 2018):

Experiments:
Aedes aegypti = assay: Adult mosquito mortality on aged insecticidal coatings on wood panels (Protocol A); assay type: in vivo; conditions: 24 h exposure, independent of aging for approximately 2 years (FIG. 7)
Description: (§1) The following protocols A, B, C and D list the flowchart methodologies for experiments that were conducted for evaluating the different coatings used. • A. Flowchart of methodology in the evaluation of adulticide coating includes the steps of: • i. Obtain preferred coating basis; • ii. Add adulticide (pyrethroids) and, if desired, an additive (CARBONXIDE™) to formulate different formulations of insecticides; • iii. Add coating on wood panels; • iv. Age wood panels in simulated environmental conditions; • v. Prepare housing for adult mosquitoes • a Place a 4-oz plastic cup upside down on coated wood panels; • vi. Place adult mosquitoes in the housing cup to expose them to insecticidal coating; • vii. Measure mosquito mortality in 1-hour, 2-hour, and 24-hour after exposure; • viii. Collect data and perform statistical analysis to determine effectiveness of adulticide coating. • B. Flowchart of methodology in the evaluation of larvicide coating can include: • i. Obtain preferred coating basis; • ii. Add larvicide (insect growth regulators) and, if desired, an additive (CARBONXIDE™); • iii. Coat filter paper and let air dry for 1-3 days; • iv. Prepare housing for larval mosquitoes; • a. Place coated filter paper in 4-oz glass jars; • b. Fill jars with unchlorinated or distilled water; • v. Place larval mosquitoes on the jars; • vi. […]

Aedes albopictus = assay: as above; assay type: in vivo; conditions: 24 h exposure, independent of aging for approximately 2 years (FIG. 8)
Description: as §1

[1] = system: gravid females (adult mosquitoes); assay: Dual-action ovitrap test, adult survival (Protocol D); assay type: in vivo, mosquito; conditions: gravid females exposed to ovitrap treated with coating (FIGS. 9-11)
Description: as §1

mosquito larvae = assay: Dual-action ovitrap test, larval survival (Protocol D); assay type: in vivo; conditions: for Mosquito larval survival / mortality versus hours of exposure: larvae in water of ovitrap treated with coating (FIGS. 9-11)
Description: The following protocols A, B, C and D list the flowchart methodologies for experiments that were conducted for evaluating the different coatings used. • A. Flowchart of methodology in the evaluation of adulticide coating includes the steps of: • i. Obtain preferred coating basis; • ii. Add adulticide (pyrethroids) and, if desired, an additive (CARBONXIDE™) to formulate different formulations of insecticides; • iii. Add coating on wood panels; • iv. Age wood panels in simulated environmental conditions; • v. Prepare housing for adult mosquitoes • a Place a 4-oz plastic cup upside down on coated wood panels; • vi. Place adult mosquitoes in the housing cup to expose them to insecticidal coating; • vii. Measure mosquito mortality in 1-hour, 2-hour, and 24-hour after exposure; • viii. Collect data and perform statistical analysis to determine effectiveness of adulticide coating. • B. Flowchart of methodology in the evaluation of larvicide coating can include: • i. Obtain preferred coating basis; • ii. Add larvicide (insect growth regulators) and, if desired, an additive (CARBONXIDE™); • iii. Coat filter paper and let air dry for 1-3 days; • iv. Prepare housing for larval mosquitoes; • a. Place coated filter paper in 4-oz glass jars; • b. Fill jars with unchlorinated or distilled water; • v. Place larval mosquitoes on the jars; • vi. Measure mosquito larva mortality in 12-hour intervals until all are dead or emerged as adults; • vii. Collect data and perform statistical analysis to determine effectiveness of adulticide coating. • C. Flowchart of methodology in evaluation of adulticide coating as applied in lethal ovitrap can include: • i. Obtain preferred coating basis; • ii. Add adulticide (pyrethroids) and, if desired an additive (CARBONXIDE™); • iii. Coat filter paper and let air dry for 1-3 days; • iv. Prepare oviposition cup; • a. Place coated filter paper in a 4-oz plastic cup; • b. Fill cup halfway with unchlorinated or distilled water; • v. Prepare housing for gravid (“pregnant”) females; • a. Cut a 1-inch hole on the side of a 3-gallon bucket; • b. Cover hole with ½ in foam; • vi. […]

SMILES | Percent of Adult Mosquito Mortality (Aedes aegypti) [%] | Percent of Adult Mosquito Mortality (Aedes albopictus) [%] | Adult survival / mortality versus hours of exposure [1] | Mosquito larval survival / mortality versus hours of exposure (mosquito larvae) | Pupal development / adult emergence from larvae (mosquito larvae; larvae in ovitrap treated with coating (FIG. 11))
CC1(C)C(C=C(Cl)Cl)C1C(=O)OCc1cccc(Oc2ccccc2)c1 (stereo not shown) [permethrin] | 100 | 100 | Adult mortality does not occur until after the females have started laying eggs | killed rapidly | 
CC(COc1ccc(Oc2ccccc2)cc1)Oc1ccccn1 (stereo not shown) [pyriproxyfen] |  |  | only normal mortality | killed rapidly when they start molting into the pupal stage | adults never emerge
